According to ChEMBL document CHEMBL4342527, “Discovery of Novel Fungal Lanosterol 14α-Demethylase (CYP51)/Histone Deacetylase Dual Inhibitors to Treat Azole-Resistant Candidiasis” (J Med Chem, 2020):
≈ marks a conversion by molar mass, not a printed value. Calls of active or inactive are those of the source. The rule behind the calls is not given here.

Key:
[1] = test system: Candida tropicalis; test: Antifungal activity against azole-resistant Candida tropicalis 5008 after 48 hrs by spectrophotometry-based serial microdilution method; assay type: functional; conditions: Candida tropicalis, 5008, 48 h
[2] = test system: Candida albicans; test: Antifungal activity against azole-sensitive Candida albicans SC5314 after 48 hrs by spectrophotometry-based serial microdilution method; assay type: functional; conditions: Candida albicans, SC5314, 48 h; read-out: MIC80
[3] = test system: Candida albicans; test: Antifungal activity against azole-resistant Candida albicans 4108 after 48 hrs by spectrophotometry-based serial microdilution method; assay type: functional; conditions: Candida albicans, 4108, 48 h
[4] = test system: Candida albicans; test: Antifungal activity against azole-resistant Candida albicans 7781 after 48 hrs by spectrophotometry-based serial microdilution method; assay type: functional; conditions: Candida albicans, 7781, 48 h
[5] = test system: Candida albicans; test: Antifungal activity against azole-resistant Candida albicans 0304103 after 48 hrs by spectrophotometry-based serial microdilution method; assay type: functional; conditions: Candida albicans, 0304103, 48 h
[6] = test system: Cryptococcus neoformans; test: Antifungal activity against azole-sensitive Cryptococcus neoformans H99 after 72 hrs by spectrophotometry-based serial microdilution method; assay type: functional, var grubii H99; conditions: Cryptococcus neoformans, var grubii H99 , 72 h; read-out: MIC80
[7] = test system: Candida albicans; test: Inhibition of HDAC in azole-resistant Candida albicans 0304103 assessed as reduction in MDR1 gene expression at 32 ug/ml after 16 hrs by SYBR Green-1 dye based RT-PCR analysis; conditions: 304103
[8] = test system: Candida albicans; test: Antifungal activity against Candida albicans 0304103 assessed as effect on filamentation up to 32 ug/ml after 4 hrs by differential interference contrast microscopic analysis; assay type: functional, organism-based
[9] = target: T1, Lanosterol 14-alpha demethylase (Candida albicans (strain SC5314 / ATCC MYA-2876) (Yeast), UniProt P10613); test: Inhibition of CYP51 in azole-resistant Candida albicans 0304103 assessed as ergosterol content at 0.5 ug/ml after 24 hrs by GC-MS analysis (reference value: 75.21%); parameters: scale not given: the % may be the effect or the level left
[10] = test system: Candida albicans; test: Inhibition of HDAC in azole-resistant Candida albicans 0304103 assessed as reduction in CDR1 gene expression at 32 ug/ml after 16 hrs by SYBR Green-1 dye based RT-PCR analysis; conditions: 304103
[11] = test system: Candida albicans; test: Inhibition of HDAC in azole-resistant Candida albicans 0304103 assessed as reduction in CDR2 gene expression at 32 ug/ml after 16 hrs by SYBR Green-1 dye based RT-PCR analysis; conditions: 304103
[12] = target: Histone deacetylase; test: Inhibition of HDAC in HUVEC using Boc-Lys(Ac)-AMC as substrate preincubated for 12 hrs followed by substrate addition and measured after 4 hrs by fluorimetry; assay type: ADME, cell-based, Homo sapiens
[13] = target: T1, Lanosterol 14-alpha demethylase; test: Inhibition of CYP51 in azole-resistant Candida albicans 0304103 assessed as reduction in ERG11 gene expression at 32 ug/ml after 16 hrs by SYBR Green-1 dye based RT-PCR analysis; parameters: species or system 304103
[14] = test system: Candida albicans; conditions: 0304103, 32 ug/ml
Description: Inhibition of HDAC in azole-resistant Candida albicans 0304103 assessed as decrease in rhodamine 6G efflux at 32 ug/ml after 16 hrs by fluorimetry

[15] = test system: Candida albicans; test: Inhibition of biofilm formation in azole resistant Candida albicans 0304103 at 64 ug/ml after 24 hrs by XTT assay relative to control; assay type: functional; conditions: Candida albicans, 0304103, 24 h
[16] = target: T1, Lanosterol 14-alpha demethylase; test: Inhibition of CYP51 in azole-resistant Candida albicans 0304103 assessed as unknown sterol 2 level at 0.5 ug/ml after 24 hrs by GC-MS analysis (reference value: 6.77%); parameters: scale not given: the % may be the effect or the level left
[17] = target: T1, Lanosterol 14-alpha demethylase; test: Inhibition of CYP51 in azole-resistant Candida albicans 0304103 assessed as unknown sterol 3 level at 0.5 ug/ml after 24 hrs by GC-MS analysis (reference value: 4.78%); parameters: scale not given: the % may be the effect or the level left
[18] = target: T1, Lanosterol 14-alpha demethylase; test: Inhibition of CYP51 in azole-resistant Candida albicans 0304103 assessed as unknown sterol 1 level at 0.5 ug/ml after 24 hrs by GC-MS analysis (reference value: 2.91%); parameters: scale not given: the % may be the effect or the level left
[19] = target: T1, Lanosterol 14-alpha demethylase; test: Inhibition of CYP51 in azole-resistant Candida albicans 0304103 assessed as lanosterol level at 0.5 ug/ml after 24 hrs by GC-MS analysis (reference value: 4.15%); parameters: scale not given: the % may be the effect or the level left
[20] = target: T1, Lanosterol 14-alpha demethylase; test: Inhibition of CYP51 in azole-resistant Candida albicans 0304103 assessed as unknown sterol 4 level at 0.5 ug/ml after 24 hrs by GC-MS analysis (reference value: 1.29%); parameters: scale not given: the % may be the effect or the level left
[21] = target: T1, Lanosterol 14-alpha demethylase; test: Inhibition of CYP51 in azole-resistant Candida albicans 0304103 assessed as unknown sterol 5 level at 0.5 ug/ml after 24 hrs by GC-MS analysis (reference value: 4.87%); parameters: scale not given: the % may be the effect or the level left

T1 sequence (P10613 whole entry): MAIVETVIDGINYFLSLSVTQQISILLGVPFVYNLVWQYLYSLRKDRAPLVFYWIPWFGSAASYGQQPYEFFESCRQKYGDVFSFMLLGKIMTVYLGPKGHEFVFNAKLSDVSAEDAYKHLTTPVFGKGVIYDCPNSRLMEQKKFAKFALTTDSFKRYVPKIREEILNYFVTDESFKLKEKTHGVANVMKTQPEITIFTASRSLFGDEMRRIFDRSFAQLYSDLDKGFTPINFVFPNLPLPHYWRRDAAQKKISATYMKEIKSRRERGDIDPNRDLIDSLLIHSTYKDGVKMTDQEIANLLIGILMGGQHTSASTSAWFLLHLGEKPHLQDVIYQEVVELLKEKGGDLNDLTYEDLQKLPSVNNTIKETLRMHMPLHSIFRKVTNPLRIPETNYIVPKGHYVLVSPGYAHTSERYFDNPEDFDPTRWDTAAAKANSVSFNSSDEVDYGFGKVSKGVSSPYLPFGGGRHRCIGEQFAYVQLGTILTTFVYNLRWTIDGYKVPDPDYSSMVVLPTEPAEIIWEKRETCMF

Row | Structure (SMILES) | MIC80 [1] | MIC80 [2] | MIC80 [3] | MIC80 [4] | MIC80 [5] | MIC80 [6] | also measured
1 | CN(Cc1ccccc1OCCCOc1ccc(C(=O)NO)cc1)CC(O)(Cn1cncn1)c1ccc(F)cc1F (racemic) | 8 µg/mL (≈ 14.1 µM) | 4 µg/mL (≈ 7.05 µM) | 1 µg/mL (≈ 1.76 µM) | 4 µg/mL (≈ 7.05 µM) | 4 µg/mL (≈ 7.05 µM) | 0.5 µg/mL (≈ 0.881 µM) | –
2 | O=C(Cc1ccc(OCCCOc2ccc(CN(CC(O)(Cn3cncn3)c3ccc(F)cc3F)C3CC3)cc2)cc1)NO (racemic) | 16 µg/mL (≈ 26.3 µM) | 8 µg/mL (≈ 13.2 µM) | 32 µg/mL (≈ 52.7 µM) | 4 µg/mL (≈ 6.58 µM) | 8 µg/mL (≈ 13.2 µM) | 4 µg/mL (≈ 6.58 µM) | –
3 | CN(Cc1ccccc1OCCCOc1ccc(CC(=O)NO)cc1)CC(O)(Cn1cncn1)c1ccc(F)cc1F (racemic) | 2 µg/mL (≈ 3.44 µM) | 1 µg/mL (≈ 1.72 µM) | 2 µg/mL (≈ 3.44 µM) | 2 µg/mL (≈ 3.44 µM) | 2 µg/mL (≈ 3.44 µM) | 0.5 µg/mL (≈ 0.86 µM) | –
4 | CN(Cc1cccc(OCCCOc2ccc(CCC(=O)NO)cc2)c1)CC(O)(Cn1cncn1)c1ccc(F)cc1F (racemic) | 8 µg/mL (≈ 13.4 µM) | 4 µg/mL (≈ 6.72 µM) | 4 µg/mL (≈ 6.72 µM) | 8 µg/mL (≈ 13.4 µM) | 8 µg/mL (≈ 13.4 µM) | 2 µg/mL (≈ 3.36 µM) | –
5 | CCN(Cc1ccc(OCCCOc2ccc(CC(=O)NO)cc2)cc1)CC(O)(Cn1cncn1)c1ccc(F)cc1F (racemic) | 4 µg/mL (≈ 6.72 µM) | 0.25 µg/mL (≈ 0.42 µM) | 4 µg/mL (≈ 6.72 µM) | 1 µg/mL (≈ 1.68 µM) | 1 µg/mL (≈ 1.68 µM) | 1 µg/mL (≈ 1.68 µM) | –
6 | CC(C)N(Cc1ccc(OCCCOc2ccc(CC(=O)NO)cc2)cc1)CC(O)(Cn1cncn1)c1ccc(F)cc1F (racemic) | 4 µg/mL (≈ 6.56 µM) | 2 µg/mL (≈ 3.28 µM) | 4 µg/mL (≈ 6.56 µM) | 2 µg/mL (≈ 3.28 µM) | 2 µg/mL (≈ 3.28 µM) | 2 µg/mL (≈ 3.28 µM) | –
7 | CN(Cc1ccccc1OCCCOc1ccc(CCC(=O)NO)cc1)CC(O)(Cn1cncn1)c1ccc(F)cc1F (racemic) | 64 µg/mL (≈ 107 µM) | 1 µg/mL (≈ 1.68 µM) | 2 µg/mL (≈ 3.36 µM) | 1 µg/mL (≈ 1.68 µM) | 1 µg/mL (≈ 1.68 µM) | 2 µg/mL (≈ 3.36 µM) | –
8 | OC(Cn1cncn1)(Cn1cncn1)c1ccc(F)cc1F [FLUCONAZOLE] | > 64 µg/mL | 0.5 µg/mL (≈ 1.63 µM) | > 64 µg/mL | > 64 µg/mL | > 64 µg/mL | 2 µg/mL (≈ 6.53 µM) | inhibition [7]: inactive; Activity [8]: inactive; Activity [9]: 74.97%; inhibition [10]: inactive; inhibition [11]: inactive; IC50 [12]: > 40 µM; inhibition (INH) [13]: Not Active; inhibition [14]: inactive; inhibition at 64 µg/mL [15]: 22.9%; Activity [16]: 7.5%; Activity [17]: 4.7%; Activity [18]: 3.06%; Activity [19]: 3.94%; Activity [20]: 1.17%; Activity [21]: 4.66%
9 | CCC(C)n1ncn(-c2ccc(N3CCN(c4ccc(OCC5COC(Cn6cncn6)(c6ccc(Cl)cc6Cl)O5)cc4)CC3)cc2)c1=O (stereo not given) [ITRACONAZOLE] | > 64 µg/mL | 0.5 µg/mL (≈ 0.709 µM) | > 64 µg/mL | > 64 µg/mL | > 64 µg/mL | 0.125 µg/mL (≈ 0.177 µM) | –
10 | C[C@@H](c1ncncc1F)[C@](O)(Cn1cncn1)c1ccc(F)cc1F [VORICONAZOLE] | > 64 µg/mL | 0.125 µg/mL (≈ 0.358 µM) | > 64 µg/mL | > 64 µg/mL | > 64 µg/mL | 0.0625 µg/mL (≈ 0.179 µM) | –
